Measured values published in paper PMC7070709, “Design, Synthesis, and In Vitro Evaluation of Hydroxybenzimidazole-Donepezil Analogues as Multitarget-Directed Ligands for the Treatment of Alzheimer’s Disease” (Molecules, 2020).

Columns and labels:
[1] = pH 7.4, CL/CM = 10, CM = 10^−6 M; cited from earlier work
[2] = target: T1, AChE (type VI-S, from electric eel) (Electrophorus electricus, UniProt O42275); conditions: read-out: TcAChE Inhibition IC50; cited from earlier work
T1 construct: purchased type VI-S

[3] = target: T2, Aβ1–42 with Cu(II) (Homo sapiens, UniProt P05067); design: method as in PMID 32171933; conditions: copper 40 µM; footnote e; cited from earlier work
T2 construct: Aβ1–42 (40 μM) was incubated at 37 °C, for 24 h with or without Cu(II) (40 μM)

[4] = 50% w/w DMSO/water, I = 0.1 M KCl, 25.0 °C; cited from earlier work
[5] = Cu(II) chelation by potentiometry; format: physicochemical; conditions: pH 7.4; read-out: conditional dissociation constant (K´d) for the copper complex
Excerpt: The metal chelating ability of hybrids 7 and 12, due to the BIM bidentate unity with (N,O) coordination mode, was studied by potentiometry. Figure 3A,B show a change in the deprotonation profile of the ligand titration curves due to the presence of the metal ions. In fact, the curves for the Cu(II)/L systems lie well below that of the ligand, while for the Zn(II)/L systems stay under for a > −1 (compound 7) or a > 0 (compound 12), thus supporting the formation of 1:1 and 1:2 M/L ratio complexes with the deprotonated and mono-protonated forms of the ligand and with relative metal dependent stability order (Cu > Zn). Table 1 contains the equilibrium models obtained from the fitting analysis of the potentiometric curves by program Hyperquad. In these equilibrium models, which the coordination core of the compounds integrates the bidentate (N,O) BIM moiety, MHL and MH2L2 correspond to species with the ligand containing one protonated nitrogen atom at the piperazine moiety, ML and ML2 correspond to complexes involving the completely deprotonated form of the ligand while MH-1L2 are mixed ligand-hydroxo metal complexes.
Solutions: the aqueous copper (CuCl2, 0.015 M) and zinc (ZnCl2, 0.0156 M) stock solutions for potentiometric equilibrium studies were prepared from 1000 ppm standards (Titrisol) and their metal content was evaluated by atomic absorption. The titrant solution (0.1 M KOH) was obtained from a carbonate-free commercial concentrate (Titrisol) and standardized by potentiometric titration with potassium hydrogen phthalate. The titrant solution was discarded whenever the percentage of carbonate (Gran’s method) was about 0.5% of the total amount of base.
Measurements: compounds 7 and 12 were titrated in 50% (w/w) DMSO/H2O medium, at T = 25.0 ± 0.1 °C and ionic strength (I) 0.1 M KCl, using 0.1 M KOH as titrant. Both glass and Ag/AgCl reference electrodes were previously conditioned in DMSO/H2O mixtures with increasing amounts of DMSO and the response of the glass electrode was controlled by strong acid–strong base (HCl/KOH) calibrations with the determination of the Nernst parameters by Gran’s method. […] All titrations were performed in duplicate and under the stated experimental conditions the pKw value (13.6) was determined and subsequently used in the computations. The stepwise protonation constant of the ligand, Ki = [HiL]/([Hi–1L][H]), and the overall metal–complex stability constants, βMmHhLl = [MmHhLl]/([M]^m[H]^h[L]^l), were calculated by fitting the potentiometric titration data with Hyperquad 2008 [26]. The metal hydrolysis constants were determined under the defined experimental conditions (I = 0.1 M KCl, 50% w/w DMSO/H2O, T = 25.0 ± 0.1 °C) and the following values of stability constants were included in the fitting of experimental data towards the equilibrium models related to the Cu^2+/L and Zn^2+/L systems: log βCu2H−2 = −9.99; log βZnH−2 = −14.79, log βZnH−3 = −23.48. Species distribution curves were plotted with the Hyss program.

[6] = target: T2, Aβ1–42 with Cu(II); assay: Inhibition of Cu-induced Aβ1–42 aggregation (thioflavin T fluorescence); format: biochemical
Protocol: The anti-amyloidogenic capacity of the compounds was also evaluated in vitro, in the absence and presence of Cu(II), based on the measurement of the fluorescence emission of Thioflavin T (ThT), a stain known by its Aβ fibril binding capacity. This binding interaction can be analyzed by fluorimetry, since the presence of ThT-fibrils increases the absorbance and the emission of the ThT dye, and it also induces red shifts on the absorbance (from 385 to 446 nm) and emission peaks (from 445 to 485 nm). All the measurements were performed after incubation (24 h, 37 °C) of the self-mediated and Cu^2+-induced Aβ aggregates in the presence/absence of the compounds under evaluation.
Herein, due to solubility problems of some compounds in the phosphate buffer (0.215 M, pH 8.0) of the working medium, the assays were carried out in the presence of 40 μM concentration of inhibitor and 20 μM in the case of compound 4, instead of 80 μM as previously reported. […] The activity dependence on ligand structural features may be mainly explained by the different ability for intercalation into the fibrils, as already assumed for other inhibitors. […] The data obtained for compounds 6 and 7 indicate that the presence of R1 = F, -NO2 substituents in the BIM have some small positive effect on the inhibition of Aβ aggregation.
The Aβ peptide was treated with 1,1,1,3,3,3-hexafluoropropan-2-ol (HFIP) and dissolved in a CH3CN/Na2CO3 (300 μM)/NaOH (250 μM) (48.3:48.3:4.3, v/v/v) mixture in order to have a stable stock solution, avoiding self-aggregation of Aβ1–42. Then, the prepared 500 μM solution was diluted at 40 μM in phosphate buffer (0.215 M, pH 8.0).
The solutions of the tested compounds were prepared in MeOH (1 mg/mL), being further diluted in phosphate buffer to a concentration of 480 μM. For copper-induced aggregation studies, a solution of CuCl2 240 μM was prepared from a stock standard solution (0.015 M). To perform the assays for the Aβ1–42 aggregation inhibition, a reported method, based on the fluorescence emission of thioflavin T (ThT), was followed. Aβ1–42 (40 μM) was incubated at 37 °C, for 24 h with or without Cu(II) (40 μM) in a phosphate buffer in presence or absence of the single ligand (40 μM and 20 μM for compound 4). Then, the samples were added to a 96-well plate with […] of 5 μM ThT in 50 mM glycine-NaOH (pH 8.5) buffer. Blank samples were prepared without the peptide for each concentration. The ThT fluorescence was measured at 446 nm (excitation) and 485 nm (emission). The inhibition percentage of aggregation was calculated by Equation (2), in which IFi and IF0 corresponded to the fluorescence intensities, in the presence and in the absence of the tested compound, subtracted of the fluorescence intensities due to the respective blanks.
The reported values were obtained as the mean ± SEM of duplicate of three different experiments.

[7] = target: T3, Aβ1–42 (Homo sapiens, UniProt P05067); design: method as in PMID 32171933; conditions: footnote e; cited from earlier work
T3 construct: Aβ1–42 (40 μM) was incubated at 37 °C, for 24 h with or without Cu(II) (40 μM)

[8] = pH 7.4, CL/CM = 10, CM = 10^−6 M; cited from earlier work; remark: listed apart in the source

T2 sequence (P05067 672-713): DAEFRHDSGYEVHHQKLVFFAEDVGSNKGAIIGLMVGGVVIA
T1 sequence (O42275 24-633): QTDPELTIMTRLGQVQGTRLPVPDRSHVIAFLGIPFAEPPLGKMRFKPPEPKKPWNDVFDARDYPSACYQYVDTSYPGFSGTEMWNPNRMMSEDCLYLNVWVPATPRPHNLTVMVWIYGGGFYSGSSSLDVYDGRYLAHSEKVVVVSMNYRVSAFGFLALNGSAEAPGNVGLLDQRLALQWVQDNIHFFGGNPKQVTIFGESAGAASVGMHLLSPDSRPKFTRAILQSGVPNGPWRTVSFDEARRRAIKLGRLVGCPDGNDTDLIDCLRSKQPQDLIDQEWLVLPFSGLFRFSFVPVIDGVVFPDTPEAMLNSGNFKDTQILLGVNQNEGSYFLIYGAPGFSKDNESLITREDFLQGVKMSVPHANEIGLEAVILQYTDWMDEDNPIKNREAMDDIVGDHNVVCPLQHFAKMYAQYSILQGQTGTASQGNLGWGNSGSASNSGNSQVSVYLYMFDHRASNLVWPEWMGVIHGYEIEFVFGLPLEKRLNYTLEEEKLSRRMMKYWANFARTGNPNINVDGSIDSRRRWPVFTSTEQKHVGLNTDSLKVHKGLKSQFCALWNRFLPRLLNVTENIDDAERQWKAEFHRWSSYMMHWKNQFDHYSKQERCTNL
T3 sequence (P05067 672-713): as the sequence (P05067 672-713) above

## O=C(NCC1CCN(Cc2ccccc2)CC1)c1cccc2[nH]c(-c3ccccc3O)nc12 [Compound 5]
[1]
  pCu (pM = −log[M]): 14.3
[2]
  IC50: 9 ± 1 µM
[3]
  Aβ1–42 Aggregation Inhibition, Cu-Induced: 58.9 ^e %
[4]
  log K1, stepwise protonation constant (011): 8.98(2)
  log K2, stepwise protonation constant (021): 7.78(4)
  log K3, stepwise protonation constant (031): 2.86(5)
[5]
  Kd: 0.000254 µM
[6]
  increase on Cu-induced Aβ aggregation (inhibition) relative to the self-induced one: more than 50%
[7]
  Aβ1–42 Aggregation Inhibition, Self-Induced: 38.6 ^e %
[8]
  pZn (pM = −log[M]): 6.4
